In patent US7342122B2, “Bisphosphonate complexes” (priority 2003, dated 2008):

Columns and labels:
[1] = test system: HBC-4; assay: Cell growth inhibition, breast cancer cell line HBC-4; type: cell-based; settings: HBC-4, breast cancer cell line
Procedure: (§1) KB cells were purchased from Human Science Research Resource Bank (Osaka, Japan). The cells were cultured in Earle's MEM (GIBCO BRL) containing 10% FBS (Bio Whittaker) at 37° C. under 5% CO2. After 24 hours the test compounds were added to the cells at the indicated concentrations. 72 hours later the cells were stained with tripan blue and counted manually. IC50 is calculated as the concentration (aqueous solution) of complex required to inhibit growth of cells by 50%.
(§2) In a similar fashion a representative number of examples of compounds of the invention were tested for their ability to inhibit the growth/proliferation of cell types representing a number of different cancers. The results are provided in Tables 4-13, below, which provide the Inhibition Constants (IC50, μM) for each compound across various cell lines.

[2] = test system: BSY-1; assay: Cell growth inhibition, breast cancer cell line BSY-1; type: cell-based; settings: BSY-1, breast cancer cell line
Procedure: as §1, §2

[3] = test system: HBC-5; assay: Cell growth inhibition, breast cancer cell line HBC-5; type: cell-based; settings: HBC-5, breast cancer cell line
Procedure: as §1, §2

[4] = test system: MCF-7; assay: Cell growth inhibition, breast cancer cell line MCF-7; type: cell-based; settings: MCF-7, breast cancer cell line
Procedure: as §1, §2

[5] = test system: MDA-MB-231; assay: Cell growth inhibition, breast cancer cell line MDA-MB-231; type: cell-based; settings: MDA-MB-231, breast cancer cell line
Procedure: as §1, §2

[6] = test system: U251; assay: Cell growth inhibition, brain cancer cell line U251; type: cell-based
Procedure: as §1, §2

[7] = test system: SF-268; assay: Cell growth inhibition, brain cancer cell line SF-268; type: cell-based; settings: SF-268, brain cancer cell line
Procedure: as §1, §2

[8] = test system: SF-295; assay: Cell growth inhibition, brain cancer cell line SF-295; type: cell-based; settings: SF-295, brain cancer cell line
Procedure: as §1, §2

[9] = test system: SF-539; assay: Cell growth inhibition, brain cancer cell line SF-539; type: cell-based; settings: SF-539, brain cancer cell line
Procedure: as §1, §2

[10] = test system: SNB-75; assay: Cell growth inhibition, brain cancer cell line SNB-75; type: cell-based; settings: SNB-75, brain cancer cell line
Procedure: as §1, §2

[11] = test system: SNB-78; assay: Cell growth inhibition, brain cancer cell line SNB-78; type: cell-based; settings: SNB-78, brain cancer cell line
Procedure: as §1, §2

[12] = test system: HCC2998; assay: Cell growth inhibition, colon cancer cell line HCC2998; type: cell-based
Procedure: as §1, §2

[13] = test system: KM-12; assay: Cell growth inhibition, colon cancer cell line KM-12; type: cell-based; settings: KM-12, colon cancer cell line
Procedure: as §1, §2

[14] = test system: HT-29; assay: Cell growth inhibition, colon cancer cell line HT-29; type: cell-based; settings: HT-29, colon cancer cell line
Procedure: as §1, §2

[15] = test system: HCT-15; assay: Cell growth inhibition, colon cancer cell line HCT-15; type: cell-based; settings: HCT-15, colon cancer cell line
Procedure: as §1, §2

[16] = test system: HCT-116; assay: Cell growth inhibition, colon cancer cell line HCT-116; type: cell-based; settings: HCT-116, colon cancer cell line
Procedure: as §1, §2

[17] = test system: NCI-H23; assay: Cell growth inhibition, lung cancer cell line NCI-H23; type: cell-based
Procedure: as §1, §2

[18] = test system: NCI-H226; assay: Cell growth inhibition, lung cancer cell line NCI-H226; type: cell-based
Procedure: as §1, §2

[19] = test system: NCI-H522; assay: Cell growth inhibition, lung cancer cell line NCI-H522; type: cell-based
Procedure: as §1, §2

[20] = test system: NCI-H460; assay: Cell growth inhibition, lung cancer cell line NCI-H460; type: cell-based
Procedure: as §1, §2

[21] = test system: A549; assay: Cell growth inhibition, lung cancer cell line A549; type: cell-based
Procedure: as §1, §2

[22] = test system: DMS273; assay: Cell growth inhibition, lung cancer cell line DMS273; type: cell-based
Procedure: as §1, §2

[23] = test system: DMS114; assay: Cell growth inhibition, lung cancer cell line DMS114; type: cell-based
Procedure: as §1, §2

[24] = test system: LOX-IMVI; assay: Cell growth inhibition, melanoma cell line LOX-IMVI; type: cell-based
Procedure: as §1, §2

[25] = test system: OVCAR-3; assay: Cell growth inhibition, ovarian cancer cell line OVCAR-3; type: cell-based; settings: OVCAR-3, ovarian cancer cell line
Procedure: as §1, §2

[26] = test system: OVCAR-4; assay: Cell growth inhibition, ovarian cancer cell line OVCAR-4; type: cell-based; settings: OVCAR-4, ovarian cancer cell line
Procedure: as §1, §2

[27] = test system: OVCAR-5; assay: Cell growth inhibition, ovarian cancer cell line OVCAR-5; type: cell-based; settings: OVCAR-5, ovarian cancer cell line
Procedure: as §1, §2

[28] = test system: OVCAR-8; assay: Cell growth inhibition, ovarian cancer cell line OVCAR-8; type: cell-based; settings: OVCAR-8, ovarian cancer cell line
Procedure: as §1, §2

[29] = test system: SK-OV-3; assay: Cell growth inhibition, ovarian cancer cell line SK-OV-3; type: cell-based; settings: SK-OV-3, ovarian cancer cell line
Procedure: as §1, §2

[30] = test system: RXF-631L; assay: Cell growth inhibition, renal cancer RXF-631L; type: cell-based
Procedure: as §1, §2

[31] = test system: ACHN; assay: Cell growth inhibition, renal cancer ACHN; type: cell-based
Procedure: as §1, §2

[32] = test system: St-4; assay: Cell growth inhibition, human stomach cancer St-4; type: cell-based; settings: St-4, human stomach cancer
Procedure: as §1, §2

[33] = test system: MKN1; assay: Cell growth inhibition, human stomach cancer MKN1; type: cell-based
Procedure: as §1, §2

[34] = test system: MKN7; assay: Cell growth inhibition, human stomach cancer MKN7; type: cell-based
Procedure: as §1, §2

[35] = test system: MKN28; assay: Cell growth inhibition, human stomach cancer MKN28; type: cell-based
Procedure: as §1, §2

[36] = test system: MKN45; assay: Cell growth inhibition, human stomach cancer MKN45; type: cell-based
Procedure: as §1, §2

[37] = test system: MKN74; assay: Cell growth inhibition, human stomach cancer MKN74; type: cell-based
Procedure: as §1, §2

[38] = test system: DU-145; assay: Cell growth inhibition, prostatic cancer DU-145; type: cell-based, human; settings: DU-145, prostatic cancer
Procedure: as §1, §2

[39] = test system: PC-3; assay: Cell growth inhibition, prostatic cancer PC-3; type: cell-based; settings: PC-3, prostatic cancer
Procedure: as §1, §2

[40] = test system: all cell types (cancer cell lines of Tables 4-12); assay: Cell growth inhibition, mean over all cell types of the panel; type: cell-based; settings: mean over all cell lines of Tables 4-12
Procedure: as §1, §2

Substance: cis-Pt (NH3)2(Pyrophosphate) [Example 8]
- log10 IC50 (M) [1]: -4.83
- log10 IC50 (M) [2]: -5.2
- log10 IC50 (M) [3]: -5.57
- log10 IC50 (M) [4]: -4.77
- log10 IC50 (M) [5]: -4.35
- log10 IC50 (M) [6]: -4.64
- log10 IC50 (M) [7]: -5.11
- log10 IC50 (M) [8]: -5.22
- log10 IC50 (M) [9]: -5.17
- log10 IC50 (M) [10]: -4.93
- log10 IC50 (M) [11]: -4.61
- log10 IC50 (M) [12]: -4.57
- log10 IC50 (M) [13]: -4.43
- log10 IC50 (M) [14]: -4.44
- log10 IC50 (M) [15]: -4.51
- log10 IC50 (M) [16]: -4.58
- log10 IC50 (M) [17]: -5.2
- log10 IC50 (M) [18]: -4.64
- log10 IC50 (M) [19]: -5.16
- log10 IC50 (M) [20]: -5.22
- log10 IC50 (M) [21]: -4.79
- log10 IC50 (M) [22]: -4.97
- log10 IC50 (M) [23]: -4.85
- log10 IC50 (M) [24]: -4.85
- log10 IC50 (M) [25]: -4.69
- log10 IC50 (M) [26]: -4.83
- log10 IC50 (M) [27]: -4.52
- log10 IC50 (M) [28]: -4.72
- log10 IC50 (M) [29]: -4.65
- log10 IC50 (M) [30]: -4.74
- log10 IC50 (M) [31]: -5.37
- log10 IC50 (M) [32]: -4.61
- log10 IC50 (M) [33]: -5.18
- log10 IC50 (M) [34]: -4.76
- log10 IC50 (M) [35]: -4.52
- log10 IC50 (M) [36]: -4.91
- log10 IC50 (M) [37]: -4.5
- log10 IC50 (M) [38]: -5.29
- log10 IC50 (M) [39]: -4.45
- log10 IC50 (M) [40]: -4.83

Substance: Pt(dach)-IP6 [Example 10]
- log10 IC50 (M) [1]: -5.07
- log10 IC50 (M) [2]: -4.56
- log10 IC50 (M) [3]: -5.4
- log10 IC50 (M) [4]: -5.32
- log10 IC50 (M) [5]: -4.67
- log10 IC50 (M) [6]: -4.69
- log10 IC50 (M) [7]: -4.52
- log10 IC50 (M) [8]: -4.67
- log10 IC50 (M) [9]: -5.14
- log10 IC50 (M) [10]: -4.86
- log10 IC50 (M) [11]: -4.48
- log10 IC50 (M) [12]: -4.7
- log10 IC50 (M) [13]: -4.23
- log10 IC50 (M) [14]: -4.65
- log10 IC50 (M) [15]: -5.14
- log10 IC50 (M) [16]: -5.33
- log10 IC50 (M) [17]: -4.95
- log10 IC50 (M) [18]: -5.08
- log10 IC50 (M) [19]: -5.17
- log10 IC50 (M) [20]: -5.19
- log10 IC50 (M) [21]: -5.21
- log10 IC50 (M) [22]: -6.27
- log10 IC50 (M) [23]: -4.26
- log10 IC50 (M) [24]: -5.31
- log10 IC50 (M) [25]: -4.9
- log10 IC50 (M) [26]: -5.01
- log10 IC50 (M) [27]: -4.78
- log10 IC50 (M) [28]: -4.57
- log10 IC50 (M) [29]: -4.28
- log10 IC50 (M) [30]: -4.39
- log10 IC50 (M) [31]: -5.21
- log10 IC50 (M) [32]: -4.3
- log10 IC50 (M) [33]: -4.89
- log10 IC50 (M) [34]: -4.17
- log10 IC50 (M) [35]: -4.19
- log10 IC50 (M) [36]: -6.21
- log10 IC50 (M) [37]: -4.15
- log10 IC50 (M) [38]: -5.03
- log10 IC50 (M) [39]: -4.46
- log10 IC50 (M) [40]: -4.86
